Measured values taken from patent EP3722296B1, “DIHYDRONAPHTHYRIDINES AND RELATED COMPOUNDS USEFUL AS KINASE INHIBITORS FOR THE TREATMENT OF PROLIFERATIVE DISEASES” (Deciphera Pharmaceuticals, LLC, priority 2012, dated 2013).

Tests used:
[1] = molecular target: T1, c-KIT D816H kinase (Homo sapiens, UniProt P10721, D816H); assay: c-KIT D816H Kinase Assay; assay type: biochemical; conditions: enzymatic assay, ATP 200 µM
T1 construct: The construct contains residues T544-V976 of cKit; GST (N); TEV cleavage site (internal); purchased deCODE Biostructures
T1 sequence (P10721 544-976 D816H): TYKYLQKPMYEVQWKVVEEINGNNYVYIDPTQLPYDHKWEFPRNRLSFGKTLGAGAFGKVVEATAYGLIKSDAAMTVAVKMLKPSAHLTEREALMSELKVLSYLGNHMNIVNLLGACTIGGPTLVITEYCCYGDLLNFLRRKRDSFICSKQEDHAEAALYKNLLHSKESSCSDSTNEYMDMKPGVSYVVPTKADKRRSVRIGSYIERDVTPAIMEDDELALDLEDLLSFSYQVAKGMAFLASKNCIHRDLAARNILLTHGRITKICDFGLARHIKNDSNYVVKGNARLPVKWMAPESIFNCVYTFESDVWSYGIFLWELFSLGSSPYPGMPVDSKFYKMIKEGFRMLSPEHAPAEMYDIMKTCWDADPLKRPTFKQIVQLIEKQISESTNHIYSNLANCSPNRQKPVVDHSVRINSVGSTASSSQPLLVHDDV
How it was run: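 Mutant cKit enzyme, expressed as a GST-fusion construct carrying an N-terminal tag and TEV site, was mixed with serially diluted compound to start reactions. Activity tracked via NADH consumption, read continuously at 340 nm over 6 hours at 30 °C.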

[2] = molecular target: T2, c-KIT D816V kinase (Homo sapiens, UniProt P10721, D816V); assay: c-KIT D816V kinase Assay; assay type: biochemical; conditions: enzymatic assay, ATP 200 uM
T2 construct: residues T544-V976 with N-terminal GST fusion; purchased deCODE Biostructures
T2 sequence (P10721 544-976 D816V): as the sequence (P10721 544-976 D816H) above, with H273V counted along it
How it was run: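 Coupled assay in which NADH oxidation was tracked as decreasing absorbance at 340 nm, continuously for 5 hours at 30 °C after adding serially diluted compound. Enzyme: cKit residues T544-V976 with N-terminal tag, GST fusion and TEV cleavage site.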

[3] = molecular target: T3, c-KIT VVDV kinase (Homo sapiens, UniProt P10721, D816V/DEL559-560); assay: cKIT-VVDV kinase Assay; assay type: biochemical; conditions: enzymatic assay; V559+V560 deletions and D816V mutation
T3 construct: This construct contains residues T544-V976 of cKit; GST (N); TEV cleavage site (internal); purchased deCODE Biostructures
T3 sequence (P10721 with tags, fused parts or gaps DEL559-560/D816V): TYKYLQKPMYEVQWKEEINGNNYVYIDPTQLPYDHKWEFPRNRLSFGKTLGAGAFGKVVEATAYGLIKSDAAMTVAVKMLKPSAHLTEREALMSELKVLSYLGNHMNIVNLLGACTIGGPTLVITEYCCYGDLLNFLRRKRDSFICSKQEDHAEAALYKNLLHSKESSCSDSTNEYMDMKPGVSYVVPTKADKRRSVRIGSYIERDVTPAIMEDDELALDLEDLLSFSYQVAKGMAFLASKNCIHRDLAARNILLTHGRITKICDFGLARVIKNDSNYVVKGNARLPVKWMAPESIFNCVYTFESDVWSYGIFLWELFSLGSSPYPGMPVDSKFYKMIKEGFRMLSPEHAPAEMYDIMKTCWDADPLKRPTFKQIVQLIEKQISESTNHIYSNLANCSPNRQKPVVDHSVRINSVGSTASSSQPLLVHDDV
Protocol: In this assay, the oxidation of NADH (measured by decrease in absorbance at 340 nm) was continuously monitored spectrophotometrically. […] The inhibition reaction was started by mixing serial diluted test compound with the above reaction mixture. The absorption at 340 nm was monitored continuously for 5 hours at 30 °C on Synergy 2 plate reader (BioTech). […] The protein construct was prepared by deCODE Biostructures using procedures known in the art. […] This construct is identical to Seq ID no.

[4] = molecular target: T4, c-KIT T670I kinase (Homo sapiens, UniProt P10721, T670I); assay: c-KIT T670I kinase assay; assay type: biochemical; conditions: enzymatic assay
T4 construct: The construct contains residues T544-V976 of cKit; GST (N); TEV cleavage site (internal); purchased deCODE Biostructures
T4 sequence (P10721 544-976 T670I): as the sequence (P10721 544-976 D816H) above, with T127I, H273D counted along it
How it was run: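 Enzyme: GST-fused, N-terminally tagged cKit bearing T670I, with TEV cleavage site. Reaction started by mixing compound dilutions with reaction mix; activity read continuously over 5 h at 30 °C as loss of 340 nm absorbance from NADH consumption.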

[5] = test system: Phospho-KIT (Tyr719); assay: GIST430 KIT Western Blot; assay type: cell-based; conditions: GIST430 cells, 4 hours, serum-free medium; read-out: pKIT suppression by western blot analysi GIST430
Protocol: (§1) GIST48, GIST430, and GIST882 cells were obtained from J. Fletcher (Brigham and Women's Hospital, Boston, MA). GIST T1 cells were obtained from B. Rubin (Cleveland Clinic, Cleveland, OH) and Professor Takahiro Taguchi (Kochi Medical School, Nankoku, Kochi, Japan). […] GIST430 cells were grown in Ham's F10 medium supplemented with 15% characterized fetal bovine serum (Invitrogen, Carlsbad, CA), 30 mg/L bovine pituitary extract (BD Biosciences, San Jose, CA), 0.5% Mito+ serum extender (BD Biosciences, San Jose, CA), 1 unit/mL penicillin G, 1 µg/ml streptomycin, and 0.29 mg/mL L-glutamine at 37 °C, 5%CO2, 95% humidity. GIST T1 cells were grown in DMEM medium supplemented with 10% characterized fetal bovine serum (Invitrogen, Carlsbad, CA), 1 unit/mL penicillin G, 1 µg/ml streptomycin, and 0.29 mg/mL L-glutamine at 37 °C, 5% CO2, and 95% humidity.
(§2) One hundred fifty thousand cells were added per well in a 24-well tissue-culture treated plate. […] Medium was aspirated, cells were washed with PBS, and serum-free Ham's F10 medium was added. […] Cells were washed with PBS, then lysed. Cell lysates were separated by SDS-PAGE and transferred to PVDF. Phospho-KIT (Tyr719) was detected using an antibody from Cell Signaling Technology (Beverly, MA), ECL Plus detection reagent (GE Healthcare, Piscataway, NJ) and a Molecular Devices Storm 840 phosphorimager in fluorescence mode. Blots were stripped and probed for total KIT using an antibody from Santa Cruz Biotech (Santa Cruz, CA). IC50 values were calculated using Prism software (Graphpad, San Diego, CA).

[6] = test system: Phospho-KIT (Tyr719); assay: GIST48 KIT Western Blot; assay type: cell-based; conditions: GIST48 cells, 4 hours, serum-free medium; read-out: pKIT suppression by western blot analysi GIST48
How it was run: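 Phospho-KIT (Tyr719) was immunoblotted on PVDF and imaged in fluorescence mode after ECL Plus, with stripping and reprobing for total KIT. IC50 values were derived from the blot signals.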

[7] = molecular target: T5, Phospho-KIT (Tyr719) (Homo sapiens, UniProt P10721, K642E); assay: GIST882 KIT Western Blot; assay type: cell-based; conditions: GIST882 cells, 4 hours, serum-free medium; read-out: pKIT suppression by western blot analysi GIST 882
T5 construct: endogenous in cells; host or cells: GIST882
T5 sequence (P10721 26-976 K642E): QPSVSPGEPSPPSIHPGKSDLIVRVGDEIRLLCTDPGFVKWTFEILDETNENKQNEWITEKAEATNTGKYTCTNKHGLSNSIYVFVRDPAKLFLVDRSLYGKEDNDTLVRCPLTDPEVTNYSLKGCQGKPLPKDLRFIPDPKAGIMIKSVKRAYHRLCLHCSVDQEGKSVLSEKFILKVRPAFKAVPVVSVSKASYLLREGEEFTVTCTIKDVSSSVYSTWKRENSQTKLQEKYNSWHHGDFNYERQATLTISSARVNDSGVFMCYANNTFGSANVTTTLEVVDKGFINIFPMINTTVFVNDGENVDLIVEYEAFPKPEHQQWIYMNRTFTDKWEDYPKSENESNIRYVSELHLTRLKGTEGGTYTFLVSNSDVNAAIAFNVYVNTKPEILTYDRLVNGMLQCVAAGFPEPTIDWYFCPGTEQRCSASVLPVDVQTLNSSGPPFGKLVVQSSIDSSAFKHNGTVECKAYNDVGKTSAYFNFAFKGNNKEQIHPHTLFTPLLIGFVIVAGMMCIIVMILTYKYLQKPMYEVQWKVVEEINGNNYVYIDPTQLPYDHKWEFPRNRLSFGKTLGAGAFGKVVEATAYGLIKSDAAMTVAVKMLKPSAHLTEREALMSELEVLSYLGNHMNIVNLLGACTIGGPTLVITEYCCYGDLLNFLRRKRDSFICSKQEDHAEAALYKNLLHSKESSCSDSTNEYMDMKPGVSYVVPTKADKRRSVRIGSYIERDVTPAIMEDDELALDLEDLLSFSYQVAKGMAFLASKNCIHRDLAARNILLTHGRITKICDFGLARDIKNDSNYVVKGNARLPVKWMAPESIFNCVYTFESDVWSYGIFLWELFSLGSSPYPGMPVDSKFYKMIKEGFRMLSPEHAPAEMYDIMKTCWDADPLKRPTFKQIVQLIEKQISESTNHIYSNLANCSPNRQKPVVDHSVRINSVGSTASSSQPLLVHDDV
Protocol: as §1
as §2, with “Two” for “One”, “RPMI1640” for “Ham's F10”

[8] = molecular target: c-KIT kinase (Homo sapiens, UniProt P10721); assay: c-KIT kinase Assay; assay type: biochemical; parameters: cKIT residues T544-V976; GST (N); TEV cleavage site (internal); purchased deCODE Biostructures; conditions: enzymatic assay, ATP 200 µM; read-out: KIT (wt) IC50
Sequence of c-KIT kinase (P10721 544-976): as the sequence (P10721 544-976 D816H) above, with H273D counted along it
How it was run: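 This continuous spectrophotometric assay tracked c-KIT kinase turnover through NADH consumption at 340 nm, recorded for 2 hours at 30 °C. The enzyme construct from deCODE Biostructures carried an N-terminal tag, a GST-fusion sequence and a TEV cleavage site. Percent inhibition came from reaction rates over 0 to 1 h relative to a no-compound control, and IC50 values were derived with GraphPad Prism.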

[9] = molecular target: T6, c-KIT V654A kinase (Homo sapiens, UniProt P10721, V654A); assay: c-KIT V654A Kinase Assay; assay type: biochemical; conditions: enzymatic assay, ATP 200 µM
T6 construct: residues T544-V976 with N-terminal GST fusion; purchased deCODE Biostructures
T6 sequence (P10721 544-976 V654A): as the sequence (P10721 544-976 D816H) above, with V111A, H273D counted along it
How it was run: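 Kinase activity tracked by coupled NADH consumption, monitored continuously at 340 nm over 6 h at 30 °C after serially diluted compound was mixed in to start inhibition. Enzyme used was a GST-fused, N-terminally tagged cKIT T544–V976 construct with a TEV cleavage site.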

[10] = test system: GIST430 cells; assay: GIST 430 Cell Proliferation Assay; assay type: cell-based; conditions: Homo sapiens, 120 h, 115 hours + 5 hours resazurin
Protocol: GIST48, GIST430, and GIST882 cells were obtained from J. Fletcher (Brigham and Women's Hospital, Boston, MA). GIST T1 cells were obtained from B. Rubin (Cleveland Clinic, Cleveland, OH) and Professor Takahiro Taguchi (Kochi Medical School, Nankoku, Kochi, Japan). Briefly, GIST48 and GIST 882 cells were grown in RPMI 1640 medium supplemented with 15% characterized fetal bovine serum (Invitrogen, Carlsbad, CA), 1 unit/mL penicillin G, 1 µg/ml streptomycin, and 0.29 mg/mL L-glutamine at 37 °C, 5% CO2, and 95% humidity. GIST430 cells were grown in Ham's F10 medium supplemented with 15% characterized fetal bovine serum (Invitrogen, Carlsbad, CA), 30 mg/L bovine pituitary extract (BD Biosciences, San Jose, CA), 0.5% Mito+ serum extender (BD Biosciences, San Jose, CA), 1 unit/mL penicillin G, 1 µg/ml streptomycin, and 0.29 mg/mL L-glutamine at 37 °C, 5%CO2, 95% humidity. GIST T1 cells were grown in DMEM medium supplemented with 10% characterized fetal bovine serum (Invitrogen, Carlsbad, CA), 1 unit/mL penicillin G, 1 µg/ml streptomycin, and 0.29 mg/mL L-glutamine at 37 °C, 5% CO2, and 95% humidity.
A serial dilution of test compound was dispensed into a 384-well black clear bottom plate (Corning, Corning, NY). Two thousand five-hundred cells were added per well in 50 µL complete growth medium. Plates were incubated for 115 hours at 37°C, 5% CO2, 95% humidity. At the end of the incubation period 10 µL of a 440 µM solution of resazurin (Sigma, St. Louis, MO) in PBS was added to each well and incubated for an additional 5 hours at 37°C, 5% CO2, 95% humidity. Plates were read on a Synergy2 reader (Biotek, Winooski, VT) using an excitation of 540 nm and an emission of 600 nm.

[11] = test system: GIST T1 cells; assay: GIST T1 Cell Proliferation Assay; assay type: cell-based; conditions: Homo sapiens, GISTT1, 72 h, 68 hours + 4 hours resazurin

Structure (SMILES) | IC50 [1] [µM] | IC50 [2] [µM] | IC50 [3] [µM] | IC50 [4] [µM] | IC50 [5] [µM] | IC50 [6] [µM] | IC50 [7] [µM] | IC50 [8] [µM] | IC50 [9] [µM] | IC50 [10] [µM] | IC50 [11] [µM]
CCn1c(=O)c(-c2cc(NC(=O)Nc3cccc4ccccc34)c(F)cc2C)cc2cnc(NC)cc21 [Example 1, 1-(5-(1-ethyl-7-(methylamino)-2-oxo-1,2-dihydro-1,6-naphthyridin-3-yl)-2-fluoro-4-methylphenyl)-3-(naphthalen-1-yl)urea] | 0.01 to 0.1 | 0.01 to 0.1 | 0.01 to 0.1 | < 0.01 | < 0.01 | 0.01 to 0.1 | 0.1 to 1 | < 0.01 | – | – | –
CNc1cc2c(cn1)cc(-c1cc(NC(=O)Nc3csc4ccccc34)c(F)cc1F)c(=O)n2C [Example 14, 1-(benzo[b]thiophen-3-yl)-3-(2,4-difluoro-5-(1-methyl-7-(methylamino)-2-oxo-1,2-dihydro-1,6-naphthyridin-3-yl)phenyl)urea] | – | 0.01 to 0.1 | 0.01 to 0.1 | < 0.01 | 0.01 to 0.1 | < 0.01 | < 0.01 | – | – | – | –
CCn1c(=O)c(-c2cc(NC(=O)Nc3cccc(F)c3)c(F)cc2F)cc2cnc(NC)cc21 [Example 15, 1-(5-(1-ethyl-7-(methylamino)-2-oxo-1,2-dihydro-1,6-naphthyridin-3-yl)-2,4-difluorophenyl)-3-(3-fluorophenyl)urea] | 0.01 to 0.1 | 0.01 to 0.1 | 0.01 to 0.1 | 0.01 to 0.1 | 0.01 to 0.1 | 0.01 to 0.1 | 0.01 to 0.1 | < 0.01 | < 0.01 | – | –
CCn1c(=O)c(-c2cc(NC(=O)Nc3ccccc3)c(F)cc2F)cc2cnc(NC)cc21 [Example 16, 1-(5-(1-ethyl-7-(methylamino)-2-oxo-1,2-dihydro-1,6-naphthyridin-3-yl)-2,4-difluorophenyl)-3-phenylurea] | 0.01 to 0.1 | 0.01 to 0.1 | 0.01 to 0.1 | 0.01 to 0.1 | 0.1 to 1 | 0.1 to 1 | 0.01 to 0.1 | < 0.01 | < 0.01 | – | –
CCn1c(=O)c(-c2cc(NC(=O)Nc3ccccc3)c(F)cc2Cl)cc2cnc(NCCCOC)cc21 [Example 39, 1-(4-chloro-5-(1-ethyl-7-(3-methoxypropylamino)-2-oxo-1,2-dihydro-1,6-naphthyridin-3-yl)-2-fluorophenyl)-3-phenylurea] | – | 0.01 to 0.1 | – | 0.01 to 0.1 | – | – | – | < 0.01 | – | 0.01 to 0.1 | –
CCn1c(=O)c(-c2cc(NC(=O)Nc3ccccc3)c(F)cc2Cl)cc2cnc(NC(=O)N3CC[C@@H](N(C)C)C3)cc21 [Example 84, (R)-N-(3-(2-chloro-4-fluoro-5-(3-phenylureido)phenyl)-1-ethyl-2-oxo-1,2-dihydro-1,6-naphthyridin-7-yl)-3-(dimethylamino)pyrrolidine-1-carboxamide] | 0.01 to 0.1 | 0.01 to 0.1 | – | 0.01 to 0.1 | 0.01 to 0.1 | 0.01 to 0.1 | 0.01 to 0.1 | < 0.01 | 0.1 to 1 | – | –
CC(=O)Nc1cc2c(cn1)cc(-c1cc(NC(=O)Nc3ccccc3)c(F)cc1Cl)c(=O)n2C(C)C [Example 86, N-(3-(2-chloro-4-fluoro-5-(3-phenylureido)phenyl)-1-isopropyl-2-oxo-1,2-dihydro-1,6-naphthyridin-7-yl)acetamide] | – | < 0.01 | – | 0.01 to 0.1 | 0.01 to 0.1 | < 0.01 | < 0.01 | < 0.01 | 0.01 to 0.1 | – | < 0.01
